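Where inhibition never reached the appropriate level, the endpoint shown equals the highest concentration tested. Otherwise, values were interpolated linearly from a five-concentration, 48-hour dose response in 96-well plates. At the GI50, growth is halved.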 Active and inactive are the calls of the source. Rule as the data show it: active = GI50 up to about 1.1 µM and inactive = higher.
Assays:
Test in all cases: inhibition of tumour cell growth, NCI panel, 48 h
[1] = tested on: NCI-H23
[2] = tested on: UO-31
[3] = tested on: MDA-MB-435
[4] = tested on: NCI-H460
[5] = tested on: M14
[6] = tested on: SR
[7] = tested on: SF-268
[8] = tested on: HOP-92
[9] = tested on: T47D
[10] = tested on: A498
[11] = tested on: CAKI-1
[12] = tested on: MDA-MB-231
[13] = tested on: OVCAR-3
[14] = tested on: HCC 2998
[15] = tested on: SK-OV-3
[16] = tested on: RXF 393
[17] = tested on: RPMI-8226
[18] = tested on: OVCAR-4
[19] = tested on: EKVX
[20] = tested on: U-251
[21] = tested on: BT-549
[22] = tested on: MOLT-4
[23] = tested on: ACHN
[24] = tested on: Malme-3M
[25] = tested on: OVCAR-8
[26] = tested on: IGROV-1
[27] = tested on: SF-539
[28] = tested on: SNB-75
[29] = tested on: PC-3
[30] = tested on: HCT-15
[31] = tested on: LOX IMVI
[32] = tested on: CCRF-CEM
[33] = tested on: A549
[34] = tested on: HCT-116
[35] = tested on: HL-60
[36] = tested on: DU-145
[37] = tested on: OVCAR-5
[38] = tested on: NCI/ADR-RES
[39] = tested on: MCF7
[40] = tested on: 786-0
[41] = tested on: MDA-N
[42] = tested on: K562
[43] = tested on: SK-MEL-5
[44] = tested on: COLO 205
[45] = tested on: HT-29
[46] = tested on: SK-MEL-2
[47] = tested on: SNB-19
[48] = tested on: Hs-578T
[49] = tested on: KM12
[50] = tested on: UACC-257
[51] = tested on: TK-10
[52] = tested on: NCI-H522
[53] = tested on: SN12C
[54] = tested on: SF-295
[55] = tested on: SW-620
[56] = tested on: UACC-62
[57] = tested on: HOP-62
[58] = tested on: NCI-H226
[59] = tested on: SK-MEL-28

## COC(=O)NCCc1n[nH]c2c1C(=O)C=C(Nc1ccccc1)C2=O
[1]
  GI50: 15.1 µM (inactive)
[2]
  GI50: 35.3 µM (inactive)
[3]
  GI50: 17 µM (inactive)
[4]
  GI50: 32.4 µM (inactive)
[5]
  GI50: 33.4 µM (inactive)
[6]
  GI50: 10.9 µM (inactive)
[7]
  GI50: 26 µM (inactive)
[8]
  GI50: 27.7 µM (inactive)
[9]
  GI50: 30.1 µM (inactive)
[10]
  GI50: 47.2 µM (inactive)
[11]
  GI50: 46.1 µM (inactive)
[12]
  GI50: 25.9 µM (inactive)
[13]
  GI50: 3.72 µM (inactive)
[14]
  GI50: 38.2 µM (inactive)
[15]
  GI50: 74.6 µM (inactive)
[16]
  GI50: 41.2 µM (inactive)
[17]
  GI50: 19.1 µM (inactive)
[18]
  GI50: 15.4 µM (inactive)
[19]
  GI50: 27.3 µM (inactive)
[20]
  GI50: 15.2 µM (inactive)
[21]
  GI50: 23.4 µM (inactive)
[22]
  GI50: 19.7 µM (inactive)
[23]
  GI50: 32.4 µM (inactive)
[24]
  GI50: 12.7 µM (inactive)
[25]
  GI50: 17.9 µM (inactive)
[26]
  GI50: 24.5 µM (inactive)
[27]
  GI50: 20.7 µM (inactive)
[28]
  GI50: 57.3 µM (inactive)
[29]
  GI50: 30.3 µM (inactive)
[30]
  GI50: 22.4 µM
[31]
  GI50: 15.5 µM (inactive)
[32]
  GI50: 13.7 µM (inactive)
[33]
  GI50: 36.7 µM (inactive)
[34]
  GI50: 21.7 µM (inactive)
[35]
  GI50: 19.2 µM (inactive)
[36]
  GI50: 47.5 µM (inactive)
[37]
  GI50: 29 µM (inactive)
[38]
  GI50: 28.5 µM (inactive)
[39]
  GI50: 15.5 µM (inactive)
[40]
  GI50: 47.3 µM (inactive)
[41]
  GI50: 17.9 µM (inactive)
[42]
  GI50: 28.2 µM (inactive)
[43]
  GI50: 17.9 µM (inactive)
[44]
  GI50: 16.8 µM (inactive)
[45]
  GI50: 24.1 µM (inactive)
[46]
  GI50: 20.6 µM (inactive)
[47]
  GI50: 28 µM (inactive)
[48]
  GI50: 36.7 µM (inactive)
[49]
  GI50: 18.4 µM (inactive)
[50]
  GI50: 16.7 µM (inactive)
[51]
  GI50: > 100 µM (inactive)
[52]
  GI50: 13.5 µM (inactive)
[53]
  GI50: 34.8 µM (inactive)
[54]
  GI50: 30.3 µM (inactive)
[55]
  GI50: 25.6 µM (inactive)
[56]
  GI50: 17.3 µM (inactive)
[57]
  GI50: 68.2 µM (inactive)

## CC1(C2(C)OC(=O)c3ccccc32)OC(=O)c2ccccc21 (stereo unspecified)
[1]
  GI50: > 100 µM (inactive)
[2]
  GI50: > 100 µM (inactive)
[3]
  GI50: > 100 µM (inactive)
[58]
  GI50: > 100 µM (inactive)
[4]
  GI50: > 100 µM (inactive)
[5]
  GI50: > 100 µM (inactive)
[6]
  GI50: > 100 µM (inactive)
[7]
  GI50: > 100 µM (inactive)
[8]
  GI50: > 100 µM (inactive)
[9]
  GI50: > 100 µM (inactive)
[10]
  GI50: > 100 µM (inactive)
[11]
  GI50: > 100 µM (inactive)
[12]
  GI50: > 100 µM (inactive)
[13]
  GI50: > 100 µM (inactive)
[14]
  GI50: > 100 µM (inactive)
[15]
  GI50: > 100 µM (inactive)
[16]
  GI50: > 100 µM (inactive)
[17]
  GI50: > 100 µM (inactive)
[18]
  GI50: > 100 µM (inactive)
[20]
  GI50: > 100 µM (inactive)
[21]
  GI50: > 100 µM (inactive)
[22]
  GI50: 83.8 µM (inactive)
[23]
  GI50: > 100 µM (inactive)
[25]
  GI50: > 100 µM (inactive)
[26]
  GI50: > 100 µM (inactive)
[27]
  GI50: > 100 µM (inactive)
[28]
  GI50: > 100 µM (inactive)
[29]
  GI50: > 100 µM (inactive)
[30]
  GI50: > 100 µM
[31]
  GI50: > 100 µM (inactive)
[33]
  GI50: > 100 µM (inactive)
[34]
  GI50: > 100 µM (inactive)
[35]
  GI50: > 100 µM (inactive)
[36]
  GI50: > 100 µM (inactive)
[38]
  GI50: > 100 µM (inactive)
[39]
  GI50: > 100 µM (inactive)
[40]
  GI50: > 100 µM (inactive)
[41]
  GI50: > 100 µM (inactive)
[43]
  GI50: > 100 µM (inactive)
[44]
  GI50: > 100 µM (inactive)
[45]
  GI50: > 100 µM (inactive)
[46]
  GI50: > 100 µM (inactive)
[47]
  GI50: > 100 µM (inactive)
[48]
  GI50: 72.6 µM (inactive)
[49]
  GI50: > 100 µM (inactive)
[50]
  GI50: > 100 µM (inactive)
[51]
  GI50: > 100 µM (inactive)
[52]
  GI50: 35.9 µM (inactive)
[53]
  GI50: > 100 µM (inactive)
[54]
  GI50: > 100 µM (inactive)
[59]
  GI50: > 100 µM (inactive)
[55]
  GI50: > 100 µM (inactive)
[56]
  GI50: > 100 µM (inactive)
[57]
  GI50: > 100 µM (inactive)
